Data taken from the pKa sets of Baltruschat and Czodrowski (2020).

Settings: acidic group

Row | SMILES | pKa
1 | C[Si](C)(C)CCCCCC(=O)O | 5.06
2 | C[N+]1(CCCCC(=O)O)CCCCC1 | 4.33
3 | CSc1nc2ncncc2[nH]1 | 7.67
4 | CC(C)=CCC1=C(O)[C@](O)(CC=C(C)C)C(=O)C(C(=O)CC(C)C)=C1O | 4.22
5 | Cc1c(Cn2cc[nH+]c2)oc2ccc(C(=O)O)cc12 | 3.91
6 | CCCCOC(=S)NC(C)=O | 9.25
7 | CC(C)(C)C1C(=O)NC(=O)NC1=O | 7.98
8 | O=C1/C(=N\O)CC/C1=N\O | 7.95
9 | Oc1oc(-c2ccccc2)nc1Cc1ccccc1 | 8.72
10 | O=C1CS(=O)(=O)NC(=O)N1 | 2.7
11 | CCCc1c(O)n2c3cc(C)ccc3nc(N(C)C)n2c1=O | 6.55
12 | Cn1c[nH+]c(C(=O)O)c1C(=O)O | -0.88
13 | O=C(O)C[NH+](CC(=O)O)Cc1cc(Cl)cc(C[NH+](CC(=O)O)CC(=O)O)c1O | 2
14 | Oc1cccc2c1-c1cccc(O)c1-2 | 8.35
15 | O=C(O)CCP | 4.23
16 | CC(C(N)=O)S(=O)(=O)NC(N)=O (stereo not drawn) | 5.21
17 | CC/C(C)=C\C(=O)O | 5.15
18 | N#CC(C#N)=NNc1ccc(OC(F)(F)F)cc1 | 6
19 | O=C1NC(C(=O)O)CC1O (stereo not drawn) | 3.8
20 | CC(=O)N1C[C@@]2(C(C)C)OC(=O)C[C@H]2[C@@H]1C(=O)O | 3.2
21 | CC(=O)NC(Cc1c[nH]c[nH+]1)C(=O)O (stereo not drawn) | 2.94
22 | Cc1cccc2c1C(=O)NC2=O | 10.5
23 | CC/C=C/CC(=O)N[C@H]1C(=O)N2[C@H]1SC(C)(C)[C@H]2C(=O)O | 2.84
24 | O=C(O)c1ccc([N+](=O)[O-])c2cccnc12 | 1.41
25 | C[NH2+]CC(=O)O | 2.24
26 | CC(C(=O)O)c1ccc(-c2ccccc2)c(F)c1 (stereo not drawn) | 4.22

Row | SMILES | pKa
27 | O=c1c2[nH]cnc2ncn1O | 5.66
28 | CCOO | 11.8
29 | Fc1cccc(NC=S)c1 | 10.9
30 | C[C@@H]([NH3+])C(=O)N1CCC[C@H]1C(=O)O | 3.04
31 | Cc1ccc(C(=O)O)c(Cl)c1 | 3.27
32 | CCOC(=O)c1ccc(O)cc1 | 9.34
33 | O=C([O-])CCC(=O)NOCc1ccccc1 | 10.2
34 | Cc1nnnn1CC(=O)O | 2.16
35 | O=C(O)c1cnccn1 | 2.7
36 | Cc1ccc(NC(=S)c2ccc(Cl)cc2)cc1 | 11.2
37 | O/C(=C\c1ccccn1)c1ccccc1 | 11.1
38 | Cc1ccc([C@H]2C[C@@H]2C(=O)O)cc1 | 4.6
39 | Oc1nc2nc[nH]c2c[nH+]1 | 1.69
40 | NCC(N)=O | 8.05
41 | O=C(O)[c+]1cccccc1 | 3.29
42 | O=S(=O)(Nc1ccc(Br)cc1)c1ccccc1 | 7.78
43 | O=c1cc(S(=O)(=O)[O-])[nH]c(=O)[nH]1 | 7.26
44 | CC(=O)[C@H]1C[C@@H](CC(=O)O)C1(C)C | 4.82
45 | O=C(O)CC1NC(=O)c2ccccc2O1 (stereo not drawn) | 4.9
46 | Cc1cc(Br)cc(Br)c1O | 7.6
47 | CC[NH+]1CCC[C@@H]1CNC(=O)c1c(OC)ccc([N+](=O)[O-])c1O | 5.75
48 | COP(=O)([O-])NS(=O)(=O)c1ccccc1 | 6.25
49 | CC(C)(C)CC#CC(=O)O | 2.54
50 | O=C([O-])/C=C/C(=O)CC(=O)CC(=O)[O-] | 8.4
51 | Oc1ccc2ccncc2c1 | 8.88
52 | CN(C)c1cccc(/C(=N\O)C(F)(F)F)c1 | 9.3

Row | SMILES | pKa
53 | O=C1C[C@@H](C(=O)O)[C@@H](C(=O)[O-])O1 | 4.5
54 | N#C/C(=N\O)C(N)=O | 5.12
55 | Nc1cccc(N)c1O | 10.5
56 | O=[N+]([O-])Cc1cccc(Cl)c1 | 6.63
57 | O=C(O)C1CCCc2ccccc2O1 (stereo not drawn) | 3.63
58 | N#CC(CCCCC(=O)O)c1ccccc1 (stereo not drawn) | 4.75
59 | O=C(O)C1(O)CCCCCC1 | 4.04
60 | CC(I)[N+](=O)[O-] (stereo not drawn) | 7.24
61 | CC(=S)Nc1ccc(Cl)cc1 | 11.1
62 | COc1ccc(S(=O)(=O)NCc2ccccc2)cc1 | 11.5
63 | [O-]c1ccc(O)cc1Cl | 10.8
64 | Cc1ccc(C(=O)O)cc1Br | 3.96
65 | [NH3+][C@H]1CCC[C@@H](C(=O)O)C1 | 3.7
66 | OC(O)c1cccnc1 | 13.1
67 | Cc1nc(C(=O)[O-])ccc1O | 9.49
68 | CSC(C)C(=O)O (stereo not drawn) | 3.76
69 | Cc1cnnc2c(O)cccc12 | 8.34
70 | O=c1cc(-c2ccccc2)oc2cc(O)ccc12 | 7.39
71 | CCCC(=O)c1cc(C(C)=O)n[nH]1 | 9.28
72 | Clc1cccc(-c2nnn[nH]2)c1 | 3.61
73 | C[S+](C)CC(=O)c1ccc([N+](=O)[O-])cc1 | 6.7
74 | C/C(=C\C=C\C(C)C(=O)O)[C@H]1C[NH2+][C@H](C(=O)O)[C@H]1CC(=O)O (stereo partly drawn) | 2.1
75 | COc1ccc(C(=S)Nc2ccc(C)cc2)cc1 | 11.8
76 | C[n+]1ccsc1N | 9.65
77 | C=C(F)C(=O)O | 2.55

Same assay, conditions: basic group

Row | SMILES | pKa
78 | c1ccc(CNc2ncnc3[nH]cnc23)cc1 | 4.09
79 | CC(O)CN(CCN1CCOCC1)CC(C)O (stereo not drawn) | 7.9
80 | c1nc[nH]n1 | 2.5
81 | N[C@H]1CCC[C@H]1C(=O)Oc1ccc([N+](=O)[O-])cc1 | 8.36
82 | Nc1ccc(/C=C/c2cc(N)c3ccccc3n2)cc1 | 9.5
83 | CSc1nc2ncncc2[nH]1 | 2.95
84 | Cc1cc(-c2ncc[nH]2)nn1C | 6.2
85 | Cc1c(Cn2ccnc2)oc2ccc(C(=O)[O-])cc12 | 6.08
86 | Cc1cc(-c2ccccc2)nnc1NCC[NH+]1CCOCC1 | 4
87 | CN(C)CCCNC(=O)/C=N/[O-] | 9.78
88 | O=[N+]([O-])c1cccc2[nH]ncc12 | 0.42
89 | COc1ncnc2c1cnn2C | 2.51
90 | Cn1ccc(=S)c2ccccc21 | 0.56
91 | Nc1cc(C[NH3+])ccc1Cl | 3.71
92 | C#CCCCCCN | 10.6
93 | CCC(C)(C)NC(C)(C)CC | 11.6
94 | CCCCCCN(CCCCCC)c1ccccc1 | 4.89
95 | [O-]c1ccnc2nccnc12 | 8.78
96 | NCc1nnn[n-]1 | 8.54
97 | CC(C)([NH3+])C(N)=S | -8.75
98 | c1ccc(NCC[NH+]2CCCCC2)cc1 | 2.8
99 | COc1ccc2nccc(C(O)C3CCCC[NH2+]3)c2c1 (stereo not drawn) | 4.34
100 | N#CC(C#N)=NNc1ccc(OC(F)(F)F)cc1 | -0.78
101 | C=CCN(CC=C)CCOC(=O)C(=C)C | 7.02

Row | SMILES | pKa
102 | CCC(C)NC(C)CC (stereo not drawn) | 10.9
103 | CN(CCC#N)CCC#N | 4.24
104 | CSC(=N)c1ccccc1 | 5.84
105 | CNCC(C)CNC | 10.6
106 | CN[C@H]1C[C@@H]1NC | 8.73
107 | CC[C@]12CCC[NH+]3CC[C@@]4(c5cccc(OC)c5N[C@H]4CC1)[C@@H]32 | 2.7
108 | CC(C)NNC1CC[NH+](C(C)C)CC1 | 6.3
109 | C[C@H](N)[C@H](C)[NH3+] | 6.79
110 | C=CC(=O)OCCN(C)C | 7.9
111 | c1ncc(Cc2c[nH+]c[nH]2)[nH]1 | 5.69
112 | CCCCCCCCCCCCCCN(CC(C)O)CC(C)O (stereo not drawn) | 8.4
113 | O=C(O)c1cnccn1 | -0.7
114 | Cc1cc(=O)n(C)n1-c1ccccc1 | 2.4
115 | CN(C)CCCCCNC(=O)/C=N/[O-] | 10.3
116 | O/C(=C\c1ccccn1)c1ccccc1 | 4.52
117 | Cc1c(Cn2ccnc2)n(C)c2ccc(C(=O)[O-])cc12 | 6.32
118 | c1ccc2c(c1)CCC2N(c1ccc2ccccc2c1)C1CCc2ccccc21 (stereo not drawn) | 0.25
119 | COc1cc2c(cc1OC)C(=O)Cc1ccc3c(c1CN(C)CC2)OCO3 | 8.09
120 | CCCC(=N)OCC | 7.08
121 | CC1CCN1 (stereo not drawn) | 11
122 | c1cncc(-c2ccoc2)c1 | 4.93
123 | COC(=O)c1ncccn1 | -0.68
124 | NCc1cccc(O)c1 | 9.06
125 | Cc1ccc2ncccc2c1 | 5.1

Row | SMILES | pKa
126 | COc1cc2c(cc1OC)[C@]13CCN4CC5=CCO[C@H]6CC(=O)N2[C@H]1C6[C@@]5(S(=O)(=O)[O-])C[C@H]43 (stereo partly drawn) | 7.45
127 | CC(C)N/C=N/c1ccc(-c2cncn2C)cc1 | 8.83
128 | Cn1cc2ccccc2n1 | 2.13
129 | Nc1cccc([NH3+])c1 | 2.46
130 | CC(CN1CCCCC1)C(C#N)(c1ccccc1)c1ccccc1 (stereo not drawn) | 7.54
131 | [O-]c1nccc2nccnc12 | 11.1
132 | CCCNc1c2ccccc2nc2cccc([N+](=O)[O-])c12 | 7.2
133 | ClC1CN2CCC1CC2 (stereo not drawn) | 8.79
134 | CCCCCCNCCC(=O)[O-] | 10.6
135 | Oc1ccc2ccncc2c1 | 5.7
136 | Cc1cc(N)ccc1CN | 9.77
137 | Nc1cccc(N)c1O | 5.5
138 | NCC#CC#CCCC(=O)[O-] | 8.26
139 | NNC(=O)c1ccc[nH+]c1 | 1.64
140 | O=C(Cc1ccccc1Nc1c(Cl)cccc1Cl)OCCCN1CCOCC1 | 7.99
141 | CNCC(C)c1ccccc1 (stereo not drawn) | 9.87
142 | CCN(CCO)c1ccc(N)cc1 | 7.12
143 | O=[N+]([O-])c1ccc([O-])c(CN2CCCCC2)c1 | 10.5
144 | Nc1ccc2nc(/C=C/c3ccccc3)ccc2c1 | 5.5
145 | C[Si](C)(C)OC1CN(Cc2ccccc2)C1 | 8.08
146 | CNc1ccc(C)cc1 | 5.36
147 | CC1CNCc2ccccc2OCCOc2ccccc2C[NH2+]1 (stereo not drawn) | 6.01
148 | Cc1cnccn1 | 1.42
149 | Nc1ccc2ncncc2c1 | 3.29

Row | SMILES | pKa
150 | CC(C)(C)NNC(C)(C)C | 8.31
151 | [O-]c1cc[n+]([C@H]2O[C@@H](CO)[C@H](O)[C@H]2O)c([O-])n1 | 9.3
152 | C[C@@H]1[C@@H](N)[C@H]1[NH3+] | 4.35
153 | NC12CCC(CC1)C2 | 10.2
154 | Cc1ncnc2nccnc12 | 2.92
155 | Cc1cncc(C)c1 | 6.15
156 | NCC[NH2+]Cc1ccccc1 | 6.48
157 | Cc1cnc2c(c1)c(C)cc1c(C)c(C)cnc12 | 6.07
158 | c1ccc(-c2ccccn2)nc1 | 4.42
159 | Cn1cnc2cccc(N)c21 | 5.79
160 | CCN(CC)CC(=O)Nc1ccc([N+](=O)[O-])cc1 | 8.05
161 | Cc1nc(C(=O)[O-])ccc1O | 5.13
162 | c1ccc(Oc2cccnc2)cc1 | 4.24
163 | Cc1cnnc2c(O)cccc12 | 3.18
164 | CCCCNCCCCCCNCCCC | 11.3
165 | CC1=C(CC(C)NCC(O)c2ccc(F)cc2)CCC1(C)C (stereo not drawn) | 8.51
166 | Cc1cn2nc(-c3ccccc3)cc(C)c2n1 | 5.3
167 | C[Si](C)(C)c1cccc(N)c1 | 4.64
168 | C[NH2+]CCNCC[NH3+] | 4.64
169 | Cc1cc2nc3ccc(N(C)C)cc3[nH+]c2cc1N | 0.2
170 | CCCN(CCC)CCCNC(=O)/C=N/[O-] | 10.3
171 | C#CC(C)(C)N(CC)C(C)(C)C | 9.6
172 | C[C@H](N)[C@@H](C)N | 9.88
173 | Cc1[nH]c(C)c(C)c1C | 3.77
